Data taken from a melting point compilation (Tetko et al.; mined from patent text by program, amines drawn as free bases though some values may be those of a salt).

SMILES | melting point [°C]
Cc1c(C(=O)Nc2ccc(N(CCO)CCO)c(C#N)c2)cnn1-c1ccc(F)cc1 | 158 to 159
O=S(=O)(Nc1ccc(Cl)nn1)c1ccccc1-c1ccccc1 | 196 to 198
O=S(=O)(CCC=C(F)F)c1nccc(-c2ccccc2)n1 | 103 to 104
COc1cc2c(cc1OC)CC1(CC2)NC(=O)CC(C)C1=O (configuration not stated) | 168 to 169
CCCCCCCCCCOc1cnc(-c2ccc(CCCCCC(C)O)cc2)nc1 (configuration not stated) | 78 to 79
c1coc(-c2nnc(-n3ccnc3)c3ccccc23)c1 | 151 to 152
CN(Cc1ccccc1)c1nc(N2CCOCC2)nc(-n2c(C(F)F)nc3ccccc32)n1 | 147 to 150
FC(F)(F)c1cc(Br)c2nc(N3CCN(c4ncccc4C(F)(F)F)CC3)[nH]c2c1 | 196
CCOC(=O)/C=C/c1ccc(/C=C/c2c(OC)cc3c(c2OC)C(C)(C)CCC3(C)C)cc1 | 205 to 207
O=C1c2cccc(OCc3ccccc3)c2C(=O)c2c(Cl)ccc(Cl)c21 | 122 to 126
Cc1cccc(CC(=O)O)c1OCCCc1cn(-c2ccc(Cl)cn2)nc1C(C)(C)C | 112 to 113
CCOC(=O)NC(=O)N1CC1C#N (configuration not stated) | 108 to 110
C=CCN(CC=C)Cc1noc(-c2ncn3c2[C@@H]2CCN2C(=O)c2c-3cccc2C(F)(F)F)n1 | 147 to 150
Cc1ccc(C2COc3c(C)c(C)cc(C)c32)nc1 (configuration not stated) | 69 to 70
N#CCc1cccc2c(-c3ccccc3Cl)nccc12 | 113
CCc1cccc2c1OC(C(F)(F)F)C(C(=O)O)=C2 (configuration not stated) | 185 to 187
CC(C)(C)C(=O)Nc1ccc(SSc2ccc(NC(=O)C(C)(C)C)cc2C(N)=O)c(C(N)=O)c1 | 288 to 289
CC(C)(N)c1ccc(-c2nc(Nc3ccc(-n4ccnn4)cc3)ncc2C#N)cc1 | 139 to 140
COc1ccc(-c2c3c(cc4ccc5c(c24)OCO5)C(=O)OC3)cc1 | 217 to 219
CC=CCOc1ccc(C)c2c1C(=O)C(C)C2c1ccccc1 (configuration not stated) | 138 to 140
CCOC(=O)C(=O)Nc1nc2c(s1)C(=O)c1ccccc1-2 | 237 to 238
CN(C)C(=S)SCC(c1cccc2ccccc12)[N+](=O)[O-] (configuration not stated) | 136 to 138
Cc1cc(C)cc(OCC(=O)c2ccc(C(C)C)cc2)c1 | 68 to 69
O=C(C(=O)c1cccc(Br)c1)c1ccncc1 | 88 to 90
c1ccc(Nc2nc3c(s2)CCc2[nH]ncc2-3)nc1 | 297 to 299
N[C@@H](Cc1ccc(N(CCCl)CCCl)cc1)C(=O)N[C@@H](Cc1cccc(C2CCCC2)c1)C(=O)O | 80 to 90

SMILES | melting point [°C]
CCOC(=O)c1c(C)nc(-c2ccccc2)nc1-c1cccc(C(F)(F)F)c1 | 59 to 60
CS(=O)(=O)c1ccc(N2CC(CO)OC2=O)cc1 (configuration not stated) | 177 to 180
N#Cc1cccc2c1CC(=NN)c1ccc(F)cc1S2 | 178 to 179
CCCCCCC(=N)NC(=S)Nc1cc(C(F)(F)F)ccc1Cl | 88 to 90
N#Cc1c(N2CCN(C(=O)c3cccs3)CC2)c2cc(Cl)cnc2n(Cc2ccccc2)c1=O | 221
C[C@H](NN1C(=O)c2ccccc2S1(=O)=O)C(=O)N[C@@H](Cc1ccccc1)C(=O)O | 190 to 193
CN1C(=O)CC[C@]2(C)c3ccc(-c4cccc(C=O)c4)cc3CC[C@@H]12 | 163
CCOc1nc2ncnn2c2c1cnc1c2cnn1CC | 196 to 197
CC12CC(=O)C3C(CCC4CC(O)CCC43C)C1CCC2C(=O)O (configuration not stated) | 265 to 270
CC(C)CC(=O)OCC(COC(=O)CC(C)C)OCn1cnc2c(=O)[nH]c(N)nc21 | 215 to 217
COC(=O)CSCNC(=O)c1ccccc1 | 65 to 68
C=C(CC)C(=O)c1ccc(OCC(=O)NCCCCF)c(Cl)c1Cl | 94 to 96
CC(C(N)=O)c1ccc2c(c1)C(=O)Cc1cccnc1S2 (configuration not stated) | 190 to 192
C=Cc1cc(OS(=O)(=O)c2ccc(C)cc2)c(OC)cc1C#N | 149 to 150
CC1CC(=O)NN=C1c1ccc(NC(=O)OC(C)C2CC2)cc1 (configuration not stated) | 223 to 224
COc1cc(Oc2ccc(S(C)(=O)=O)nc2)cc2cc(C3=NCC(CC(=O)NC4CC4)S3)[nH]c12 (configuration not stated) | 248 to 249
CCCS(=O)(=O)ON=C(Cl)c1ccc(C)cc1 | 57.5 to 60.5
COc1ccc(C2=NN(CCCCCN3C(=O)c4ccccc4C3=O)C(=O)[C@H]3CC=CC[C@@H]23)cc1OC (relative stereo) | 126 to 129
Cc1cc(C)nc(C(=O)c2[nH]c3ccc(Cl)cc3c2CC(=O)O)c1 | 233 to 235
CC(=O)c1cccc(NC(=O)C2CC2)c1 | 136 to 137
NC(=O)c1cc(Cl)ccc1SSc1ccc(Cl)cc1C(N)=O | 278 to 282
CCC(=O)N1c2cscc2C(=O)N(C)c2ccccc21 | 202 to 203
C/C(NC1CCCCC1)=C(\C#N)C(N)=S | 142 to 144
COc1cccc(C(=O)O)c1NC(=O)C(C)(C)C | 117 to 120
CSc1ccc(CN(C2CCOCC2)S(=O)(=O)c2ccc(Cl)cc2)cc1 | 124 to 127
CC(=O)Nc1nc2c(Oc3cc(-c4ccc(C(F)(F)F)cc4NC(C)=O)ncn3)cccc2s1 | 259 to 261

SMILES | melting point [°C]
Cc1ncc2cccc(O)c2n1 | 135 to 137
COCCCN1CC(=O)c2cc(Cl)sc2S1(=O)=O | 48 to 52
Cn1c(=O)c(N=C=O)c(-c2ccccc2Cl)c2cc(Cl)ccc21 | 204 to 206
CC#Cc1ccc(NC(=O)c2cccnc2NCc2ccc(=O)[nH]c2)cc1C(F)(F)F | 211 to 218
CC(C)(C)c1cc(CCc2ccc(F)cc2NC(=O)NC2CCN(Cc3ccccc3)CC2)cc(C(C)(C)C)c1O | 118 to 119
CCNC(=O)C(C)(C)COc1cccc2nc(C)c(C(=O)O)c(N)c12 | 168 to 170
CC[C@H](C)[C@H](Nc1nc(OC)ns1)C(=O)N1CCC[C@H]1C(=O)O | 112 to 114
CC(C)(C)OC(=O)C(=NOC(C)(C)C(=O)OCC[Si](C)(C)C)c1csc(N)n1 | 83
COc1cccc(Sc2ccnc(Nc3cccc(CN)c3)n2)c1 | 120 to 121
OC/C=C/c1ccc(OCc2coc(-c3ccccc3)n2)c(F)c1 | 134 to 135
CON(C)C(=O)Nc1ccc(CN2OCCC(C)(SC)C2=O)c(Cl)c1 (configuration not stated) | 88 to 91
C[Si](C)(C)CCOCn1cc(C#N)c(=O)c2cc(N)c(N)cc21 | > 300
CC(=O)NC[C@H]1CC[C@H](C(=O)c2cc3c4c(c2)CCN4C(=O)CC3)CC1 | 178 to 180
O=C1c2ccccc2-c2[nH]c(=O)c(=O)[nH]c21 | 243 to 253
CN1CCN(c2cccc(-n3cnc4cc(C=O)ccc43)c2)CC1 | 199 to 201
CCCCCC[C@@H]1C[C@H](c2ccc(O)cc2)C(=O)O1 | 87 to 88
O=C(c1ccc2c(c1)OCC(c1ccccc1)=N2)N1CCOCC1 | 175 to 177
CC(C)(C)OC(=O)OCn1c(C(=O)Nc2nc(-c3ccccc3)c(CCO)s2)cc2ccccc21 | 180 to 181
CCCCC[C@H]1CC[C@H](CCC2CCC(c3ccc(O)cc3)(c3ccc(O)cc3)CC2)CC1 | 203 to 204
O=C1Nc2ccc(I)cc2C1=NNC(=O)c1ccc(OC(F)(F)F)cc1 | 306
CN1C(=O)Nc2ccc(Cl)cc2C1(C#CC1(C)CC1)C(F)(F)F (configuration not stated) | 206 to 208
Nc1ccc(C(c2ccccc2)c2ccccc2)nc1 | 130 to 134
C=CCOc1ccc2c(=O)c(C)c(-c3ccccc3)oc2c1C(=O)C=Cc1cccc(OC)c1 | 90 to 92
CS(=O)(=O)Nc1cccc(Nc2nc(NCc3cccc(N)c3)c3nc[nH]c3n2)c1 | 170 to 173
CCOC(=O)/C=C/S(=O)(=O)c1ccc(C(C)(C)C)cc1 | 88 to 91
O=C(O)c1cc(O)c(O)c([N+](=O)[O-])c1 | 224 to 226

SMILES | melting point [°C]
CC(=O)Nc1ccc(OC2SCC(OC(C)=O)C(OC(C)=O)C2OC(C)=O)cc1 (configuration not stated) | 166
COc1ccc(CC#N)cc1S(=O)(=O)NC(C)(C)C | 146 to 147
NC(=O)c1ncn2c(-c3cccc(C(F)(F)F)c3)ccnc12 | 239 to 240
N#Cc1cc(Cl)ccc1N1CCN(Cc2cn3cc(Cl)ccc3n2)CC1 | 191 to 192
CN(C)CCCNc1ccnc2cc3c(cc12)OCO3 | 178 to 181
CC(=O)N(C)C(Cc1ccccc1N)c1sccc1C (configuration not stated) | 176 to 182
CCCCCCS(=O)(=O)Cc1ccc(C(C)(C)NC(=O)OC)cc1 | 104 to 105
Cn1cc(C(=O)C(=O)NC2=CC(=O)OC2)c2ccccc21 | 262 to 264
O=C1OC2(CCN(CCOC(c3ccccc3)c3ccccc3)CC2)c2ccccc21 | 99 to 100
N#Cc1ccc(N2C(=O)NC3(CCS(=O)(=O)CC3)C2=O)cc1C(F)(F)F | 257 to 258
CCCNC(=O)c1ccc(CCN2CC=C(c3c[nH]c(-c4ccc(F)cc4)c3-c3ccncc3)CC2)cc1 | 227 to 230
OCC(O)Cc1c(OCc2ccccc2)ccc2ncccc12 (configuration not stated) | 160 to 162
c1cc(-c2noc(C3CC3)n2)cnn1 | 115 to 117
CCCOc1c(OC)cc(C(CCC(C(=O)O)c2cc(OC)c(OC)c(OC)c2)C(=O)O)cc1SC (configuration not stated) | 172 to 174
CC1(C2=CCC3C4CCC5CC(O)CCC5(C)C4C(O)CC23C)OCCO1 (configuration not stated) | 214 to 218
Cc1cc(O)c(CCN(C)C)c(C)c1C | 72
CC(=O)c1cc(Cl)sc1S(=O)(=O)Nc1ccc(CCO)cc1 | 112 to 116
CNC(=O)N(O)C(C)c1ccc(Cl)cc1 (configuration not stated) | 117 to 120
CNc1cc(C=O)cc(S(N)(=O)=O)c1Oc1ccccc1 | 166 to 167
NS(=O)(=O)CCCNc1nc(Cl)ncc1Cl | 186 to 187
CCOC(=O)[C@H](Cc1ccc(O)cc1)NC(=O)C1(NC(=O)[C@@H](SC(=O)C2CCCC2)C(C)C)CCCC1 | 130 to 131
CCCCc1ncc(CC(Cc2cccs2)C(=O)O)n1Cc1ccc(C(=O)O)cc1 (configuration not stated) | 175
CC(O)C1COCc2nc3c(N)nc4ccccc4c3n21 (configuration not stated) | 208 to 209
CC(C)OP(=O)(COCCOc1nc(N)nc(N)c1C=O)OC(C)C | 225 to 227
